Results taken from ChEMBL document CHEMBL1137595, “Identification and optimisation of a series of substituted 5-(1H-pyrazol-3-yl)-thiophene-2-hydroxamic acids as potent histone deacetylase (HDAC) inhibitors” (Bioorg Med Chem Lett, 2007).

Assay: Oral bioavailability after oral dosing at 5 mg kg-1
Type: ADME, organism-based
Settings: mouse, in vivo

bioavailability: 10%
SMILES: O=C(NO)c1ccc(-c2ccn(CCNCc3ccc4c(c3)OCO4)n2)s1
